Assay results as given in ChEMBL document CHEMBL1132005, “Structure-activity relationship in two series of aminoalkyl substituted coumarin inhibitors of gyrase B” (1999).
Values after ≈ are worked out from the molar mass of the structure shown.

Tests used:
[1] = system: Staphylococcus aureus; assay: In vitro antibacterial activity against Staphylococcus aureus 011HT3; type: functional
[2] = system: Staphylococcus aureus; assay: In vitro antibacterial activity against Staphylococcus aureus 011HT1 Nov-R; type: functional
[3] = system: Staphylococcus aureus; assay: In vitro antibacterial activity against Staphylococcus aureus 011GO76 OfloOxaEry-R; type: functional
[4] = system: Enterococcus faecium; assay: In vitro antibacterial activity against Enterococcus faecium 02D31P2 VanTeiEry-R; type: functional
[5] = system: Streptococcus pyogenes; assay: In vitro antibacterial activity against Streptococcus pyogenes O2A1UC1
[6] = molecular target: DNA gyrase (Escherichia coli) (UniProt P0AES6+P0AES4); assay: In vitro inhibition of supercoiling activity of Escherichia coli DNA gyrase as the ratio of IC50 of Novobiocin and IC50 of compound; type: protein-complex assay
[7] = system: Staphylococcus epidermidis; assay: In vitro antibacterial activity against Staphylococcus epidermidis 012GO39 OxaTei-R; type: functional

Row | MIC [1] | MIC [2] | MIC [3] | MIC [4] | MIC [5] | Ratio [6] | MIC [7] | Structure (SMILES)
1 | 10 µg/mL (≈ 18 µM) | > 40 µg/mL | 20 µg/mL (≈ 36 µM) | > 40 µg/mL | 20 µg/mL (≈ 36 µM) | 2.3 | 5 µg/mL (≈ 9 µM) | CO[C@@H]1[C@@H](OC(=O)c2ccc(C)[nH]2)[C@@H](O)[C@H](Oc2ccc3c(CN4CCNCC4)cc(=O)oc3c2C)OC1(C)C
2 | 0.08 µg/mL (≈ 0.133 µM) | 2.5 µg/mL (≈ 4.17 µM) | 5 µg/mL (≈ 8.34 µM) | 5 µg/mL (≈ 8.34 µM) | 0.6 µg/mL (≈ 1 µM) | 0.33 | < 0.04 µg/mL | CO[C@@H]1[C@@H](OC(=O)c2ccc(C)[nH]2)[C@@H](O)[C@H](Oc2ccc3c(OCCSc4ncc[nH]4)cc(=O)oc3c2C)OC1(C)C
3 | 2.5 µg/mL (≈ 4.71 µM) | 20 µg/mL (≈ 37.7 µM) | 2.5 µg/mL (≈ 4.71 µM) | > 40 µg/mL | 5 µg/mL (≈ 9.42 µM) | 2.3 | 1.2 µg/mL (≈ 2.26 µM) | CNCCOc1cc(=O)oc2c(C)c(O[C@@H]3OC(C)(C)[C@H](OC)[C@@H](OC(=O)c4ccc(C)[nH]4)[C@H]3O)ccc12
4 | 10 µg/mL (≈ 17.3 µM) | > 40 µg/mL | 20 µg/mL (≈ 34.5 µM) | > 40 µg/mL | 40 µg/mL (≈ 69.1 µM) | 0.33 | 5 µg/mL (≈ 8.63 µM) | CO[C@@H]1[C@@H](OC(=O)c2ccc(C)[nH]2)[C@@H](O)[C@H](Oc2ccc3c(OCCN(C)C)c(Cl)c(=O)oc3c2C)OC1(C)C
5 | 10 µg/mL (≈ 20.6 µM) | > 40 µg/mL | 40 µg/mL (≈ 82.2 µM) | > 40 µg/mL | 40 µg/mL (≈ 82.2 µM) | 1.8 | 5 µg/mL (≈ 10.3 µM) | CO[C@@H]1[C@@H](OC(=O)c2ccc(C)[nH]2)[C@@H](O)[C@H](Oc2ccc3c(CN)cc(=O)oc3c2C)OC1(C)C
6 | 0.6 µg/mL (≈ 1.05 µM) | 10 µg/mL (≈ 17.5 µM) | 1.2 µg/mL (≈ 2.1 µM) | 20 µg/mL (≈ 35 µM) | 2.5 µg/mL (≈ 4.38 µM) | 0.3 | 1.2 µg/mL (≈ 2.1 µM) | CO[C@@H]1[C@@H](OC(=O)c2ccc(C)[nH]2)[C@@H](O)[C@H](Oc2ccc3c(CN4CCC[C@H]4CO)cc(=O)oc3c2C)OC1(C)C
7 | 2.5 µg/mL (≈ 4.59 µM) | 40 µg/mL (≈ 73.4 µM) | 5 µg/mL (≈ 9.18 µM) | > 40 µg/mL | 10 µg/mL (≈ 18.4 µM) | 0.57 | 2.5 µg/mL (≈ 4.59 µM) | CO[C@@H]1[C@@H](OC(=O)c2ccc(C)[nH]2)[C@@H](O)[C@H](Oc2ccc3c(OCCN(C)C)cc(=O)oc3c2C)OC1(C)C
8 | 2.5 µg/mL (≈ 4.62 µM) | 40 µg/mL (≈ 74 µM) | 5 µg/mL (≈ 9.25 µM) | > 40 µg/mL | 10 µg/mL (≈ 18.5 µM) | 0.5 | 2.5 µg/mL (≈ 4.62 µM) | CO[C@@H]1[C@@H](OC(=O)c2ccc(C)[nH]2)[C@@H](O)[C@H](Oc2ccc3c(CN4CCCC4)cc(=O)oc3c2C)OC1(C)C
9 | 1.2 µg/mL (≈ 2.23 µM) | > 40 µg/mL | 5 µg/mL (≈ 9.3 µM) | > 40 µg/mL | 5 µg/mL (≈ 9.3 µM) | 1 | 1.2 µg/mL (≈ 2.23 µM) | CO[C@@H]1[C@@H](OC(=O)c2ccc(C)[nH]2)[C@@H](O)[C@H](Oc2ccc3c(Cn4ccnc4)cc(=O)oc3c2C)OC1(C)C
10 | 5 µg/mL (≈ 8.78 µM) | 40 µg/mL (≈ 70.2 µM) | 5 µg/mL (≈ 8.78 µM) | > 40 µg/mL | 10 µg/mL (≈ 17.6 µM) | 0.46 | 2.5 µg/mL (≈ 4.39 µM) | CO[C@@H]1[C@@H](OC(=O)c2ccc(C)[nH]2)[C@@H](O)[C@H](Oc2ccc3c(CN4CCN(C)CC4)cc(=O)oc3c2C)OC1(C)C
11 | 0.3 µg/mL (≈ 0.528 µM) | 20 µg/mL (≈ 35.2 µM) | 10 µg/mL (≈ 17.6 µM) | 10 µg/mL (≈ 17.6 µM) | 1.2 µg/mL (≈ 2.11 µM) | 0.57 | < 0.04 µg/mL | CO[C@@H]1[C@@H](OC(=O)c2ccc(C)[nH]2)[C@@H](O)[C@H](Oc2ccc3c(OCCn4cncn4)cc(=O)oc3c2C)OC1(C)C
12 | 1.2 µg/mL (≈ 2 µM) | 20 µg/mL (≈ 33.4 µM) | 2.5 µg/mL (≈ 4.17 µM) | 40 µg/mL (≈ 66.7 µM) | 10 µg/mL (≈ 16.7 µM) | 0.5 | 1.2 µg/mL (≈ 2 µM) | CO[C@@H]1[C@@H](OC(=O)c2ccc(C)[nH]2)[C@@H](O)[C@H](Oc2ccc3c(OCCN4CCN(C)CC4)cc(=O)oc3c2C)OC1(C)C
13 | 0.3 µg/mL (≈ 0.526 µM) | 10 µg/mL (≈ 17.5 µM) | 0.6 µg/mL (≈ 1.05 µM) | 2.5 µg/mL (≈ 4.38 µM) | 0.6 µg/mL (≈ 1.05 µM) | 0.4 | 0.3 µg/mL (≈ 0.526 µM) | CO[C@@H]1[C@@H](OC(=O)c2ccc(C)[nH]2)[C@@H](O)[C@H](Oc2ccc3c(CSc4nc[nH]n4)cc(=O)oc3c2C)OC1(C)C
14 | 0.6 µg/mL (≈ 0.999 µM) | 40 µg/mL (≈ 66.6 µM) | – | 20 µg/mL (≈ 33.3 µM) | 5 µg/mL (≈ 8.32 µM) | 0.66 | 2.5 µg/mL (≈ 4.16 µM) | CO[C@@H]1[C@@H](OC(=O)c2ccc(C)[nH]2)[C@@H](O)[C@H](Oc2ccc3c(OCCN4CCC[C@H]4CO)cc(=O)oc3c2C)OC1(C)C

Row | Structure (SMILES) | MIC [1] | MIC [2] | MIC [3] | MIC [4] | MIC [5] | Ratio [6] | MIC [7]
15 | CO[C@@H]1[C@@H](OC(N)=O)[C@@H](O)[C@H](Oc2ccc3c(O)c(NC(=O)c4ccc(O)c(CC=C(C)C)c4)c(=O)oc3c2C)OC1(C)C [NOVOBIOCIN] | < 0.04 µg/mL | 20 µg/mL (≈ 32.6 µM) | < 0.04 µg/mL | 0.3 µg/mL (≈ 0.49 µM) | 0.15 µg/mL (≈ 0.245 µM) | – | 0.08 µg/mL (≈ 0.131 µM)
